These results are taken from PMC3481155, “AhR activation underlies the CYP1A autoinduction by A-998679 in rats” (Frontiers in Genetics, 2012).

One data set addresses T1, rat Cyp1a2 (Rattus norvegicus, UniProt P04799).
T1 construct: purchased BD Gentest; host or cells: baculovirus infected insect cells
Nature of the data set: Recombinant rat Cyp phenotype profiling, 1A2. Type of data set: in vitro ADME. To be noted: 60 min. Here is the method: Identification of the drug metabolizing enzymes (DMEs) of A-998679 was studied in cDNA expressed recombinant enzymes prepared from baculovirus infected insect cells over-expressing rat Cyp isoforms (BD Gentest, Woburn, MA) as listed in Table 2. Incubations were conducted in duplicate using Supersomes. The incubation mixture contained 100 pmol/ml of enzymes, except for Cyp1a1 (200 pmol/ml), 0.1 or 0.21 μM of [^3H]A-998679 in 100 mM phosphate buffer (pH 7.4). Reactions were initiated with the addition of NADPH at a final concentration of 1 mM and incubated at 37°C for 60 min. At the end of the incubation period, the incubations were terminated by the addition of acetonitrile/ethanol (50/50, v/v) solution. Insect control samples lacking expressed enzyme were used as negative control. The degree of metabolism of A-998679 was assessed by percent of parent remaining using the radio-HPLC method described below.
Radiolabeled components from the above assays were profiled following separation by HPLC with on line radioflow detector. The system consisted of an Agilent 1100 Series quaternary pump and autosampler connected to a Packard 500TR flow scintillation detector. The data were processed using the Radiomatic™ Flo-one® software v3.65. The scintillant (Perkin Elmer FLO-SCINT™ III) flow was maintained at 3 ml/min. […]

A further data set has as its system Cyp1a2. Nature of the data set: Cyp1a2 mRNA in rat liver after 5 days of dosing (microarray, RT-PCR). Type of data set: in vivo. Here is the method:
All animal experiments were conducted in accordance with the Guiding Principles in the Use of Animals in Toxicology (http://www.toxicology.org/ai/air/air6.asp) and were approved by Abbott's Institutional Animal Care and Use Committee (IACUC). Male Sprague-Dawley rats [Crl:CD®(SD)IGS BR], weighing ~250 g at study initiation were obtained from Charles River Laboratories, Inc. (Wilmington, MA). Rats were housed singly in ventilated, stainless steel, wire-bottom hanging cages and fed non-certified Rodent Chow (Harlan Labs, Madison, WI), and water ad libitum and acclimated for at least 5 days after arrival. […] Serum clinical chemistry parameters were quantified using an Aeroset Clinical Chemistry Analyzer (Abbott Laboratories, Abbott Park, IL) and included alanine amino transferase (ALT), aspartate amino transferase (AST), gamma glutamyltransferase (GGT), and alkaline phosphatase (ALP) activities.
Frozen liver or jejunum were immediately added to 4 ml of TRIzol reagent (Invitrogen Life Technologies) and homogenized using a Polytron 300D homogenizer (Brinkman Instruments, Westbury, NY). […] Nucleic acid concentration was determined by OD 260 nm (Smart-Spec, Bio-Rad Laboratories, Hercules, CA), and RNA integrity was evaluated using an Agilent 2100 bioanalyzer (Agilent Technologies, Foster City, CA). […]

The target in a further data set is T2, CYP3A4 (Homo sapiens, UniProt P08684).
T2 construct: from tissue; host or cells: human liver microsomes
T2 sequence (P08684 whole entry): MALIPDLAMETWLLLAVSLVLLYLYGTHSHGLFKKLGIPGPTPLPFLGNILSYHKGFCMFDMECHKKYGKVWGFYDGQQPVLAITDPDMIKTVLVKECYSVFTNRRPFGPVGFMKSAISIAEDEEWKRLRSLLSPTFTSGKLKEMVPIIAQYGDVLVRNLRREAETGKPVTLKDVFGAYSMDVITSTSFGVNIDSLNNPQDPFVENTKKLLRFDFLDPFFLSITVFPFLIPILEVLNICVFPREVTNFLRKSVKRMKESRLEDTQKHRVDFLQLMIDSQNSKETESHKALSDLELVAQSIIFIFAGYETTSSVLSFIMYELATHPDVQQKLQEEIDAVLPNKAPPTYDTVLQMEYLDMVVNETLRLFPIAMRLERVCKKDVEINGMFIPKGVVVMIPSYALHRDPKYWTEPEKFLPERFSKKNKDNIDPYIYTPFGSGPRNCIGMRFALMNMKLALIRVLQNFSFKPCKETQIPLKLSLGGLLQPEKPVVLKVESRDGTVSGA
Nature of the data set: CYP inhibition evaluation in human liver microsomes, CYP3A4 (midazolam). It counts as in vitro ADME. The conditions noted are these: probe substrate midazolam. The method, then:
Incubations were performed in human liver microsomes using probe substrate concentrations similar to their corresponding Km values. Enzyme activity was evaluated in the presence of various concentrations of A-998679. The incubations consisted of the test article at varying concentrations (0–30 μM), probe substrate (concentration ~Km, see Table A2), human liver microsomal protein and 1 mM NADPH in 50 mM phosphate buffer at pH 7.4. Relative quantitation of the metabolites was obtained by LC-MS/MS using an ABSciex (Foster City, CA) API3000 or API4000 Qtrap hybrid linear ion trap mass spectrometer equipped with a TurboIonspray source using either PerkinElmer series 200 pumps or Agilent 1100 series pump with a Leap autosampler. Analytes were separated using a Phenomenex Prodigy ODS(3) 5 μm, 50 × 2.0 mm column at 50°C, eluted and detected under the specific conditions listed in Tables A3, A4, and A5. The analyte to internal standard peak area ratios were determined using Analyst 1.4 software (Applied Biosytems, Carlsbad, CA). The peak area ratios observed in the presence of test article were compared to the vehicle control in order to determine percent activity. To determine the IC50, the data were plotted as Log [dose] μM vs. % inhibition, and analyzed with a sigmoidal dose-response (variable slope) fitting equation. […]
For orientation: Liver microsomes are vesicles of endoplasmic reticulum, rich in cytochrome P450 enzymes.

pIC50: −log10 of the molar value.

T1 sequence (P04799 whole entry): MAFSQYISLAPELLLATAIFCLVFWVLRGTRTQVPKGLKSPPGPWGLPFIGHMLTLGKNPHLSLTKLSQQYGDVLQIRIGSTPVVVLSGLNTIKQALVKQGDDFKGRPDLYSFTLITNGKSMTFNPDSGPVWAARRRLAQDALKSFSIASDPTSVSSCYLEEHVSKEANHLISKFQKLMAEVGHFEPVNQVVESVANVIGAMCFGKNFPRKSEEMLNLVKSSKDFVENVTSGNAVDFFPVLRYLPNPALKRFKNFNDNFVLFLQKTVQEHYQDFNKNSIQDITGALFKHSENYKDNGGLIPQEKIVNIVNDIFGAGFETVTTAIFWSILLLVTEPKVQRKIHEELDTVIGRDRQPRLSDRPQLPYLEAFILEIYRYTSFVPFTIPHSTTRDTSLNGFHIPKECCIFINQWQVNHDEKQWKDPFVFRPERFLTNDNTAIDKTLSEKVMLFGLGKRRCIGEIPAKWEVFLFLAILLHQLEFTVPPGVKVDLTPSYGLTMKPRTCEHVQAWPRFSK

A word on the pIC50: it is the negative decadic logarithm of the IC50, by convention in mol/L. A lower pIC50 goes with a large IC50. In the case of `N#Cc1cccc(-c2noc(-c3cccnc3)n2)c1` [A-998679, 3-(5-pyridin-3-yl-1,2,4-oxadiazol-3-yl) benzonitrile], the “% parent remaining” value at rat Cyp1a2 (recombinant rat Cyp 1A2, 0.10 μM) stood at 0%; on rat Cyp1a2 (recombinant rat Cyp 1A2, 0.21 μM) it was 0%. Also, in the data set with Cyp1a2 (5 days of dosing, in at least one animal starting at the 100 mg/kg dose), the “Cyp1a2 mRNA increase in rat liver (microarray)” value was 2–3 fold. In the data set on Cyp1a2 (5 days, all doses (30, 100, 200 mg/kg/day)), the “Cyp1a2 mRNA expression in rat liver (RT-PCR)” value is recorded as “strongly induced”. Moreover, the negative-log IC50 (pIC50) at CYP3A4 was under 4.52.
